Measured values from PubChem BioAssay (NCI).
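Each compound was tested at five concentrations against cells in 96-well plates for 48 hours. At the GI50, growth is halved. TGI: concentration producing complete growth inhibition.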

How the values were obtained:
Assay in all cases: NCI anticancer screen, dose series, 48 h; in the data active = GI50 below about 0.43 µM; inactive = the rest
OVCAR-3 ovarian = test system: OVCAR-3 ovarian
SF-268 CNS = test system: SF-268 CNS
LOX IMVI melanoma = test system: LOX IMVI melanoma
HCC-2998 colon = test system: HCC-2998 colon
DU-145 prostate = test system: DU-145 prostate
T-47D breast = test system: T-47D breast
A498 renal = test system: A498 renal
SK-OV-3 ovarian = test system: SK-OV-3 ovarian
HCT-116 colon = test system: HCT-116 colon
SNB-19 CNS = test system: SNB-19 CNS
SW-620 colon = test system: SW-620 colon
IGROV1 ovarian = test system: IGROV1 ovarian
NCI-H23 lung = test system: NCI-H23 lung
HL-60(TB) leukemia = test system: HL-60(TB) leukemia
MCF7 breast = test system: MCF7 breast
EKVX NSCLC = test system: EKVX NSCLC
M14 melanoma = test system: M14 melanoma
SK-MEL-28 melanoma = test system: SK-MEL-28 melanoma
786-0 renal = test system: 786-0 renal
HCT-15 colon = test system: HCT-15 colon
OVCAR-8 ovarian = test system: OVCAR-8 ovarian
OVCAR-4 ovarian = test system: OVCAR-4 ovarian
SNB-75 CNS = test system: SNB-75 CNS
COLO 205 colon = test system: COLO 205 colon
RPMI-8226 leukemia = test system: RPMI-8226 leukemia
NCI-H522 lung = test system: NCI-H522 lung
OVCAR-5 ovarian = test system: OVCAR-5 ovarian
KM12 colon = test system: KM12 colon
U251 CNS = test system: U251 CNS
HOP-92 NSCLC = test system: HOP-92 NSCLC
TK-10 renal = test system: TK-10 renal
NCI/ADR-RES ovarian = test system: NCI/ADR-RES ovarian
SK-MEL-2 melanoma = test system: SK-MEL-2 melanoma
UACC-257 melanoma = test system: UACC-257 melanoma
UACC-62 melanoma = test system: UACC-62 melanoma
HS 578T breast = test system: HS 578T breast
HOP-62 NSCLC = test system: HOP-62 NSCLC
A549 NSCLC = test system: A549 NSCLC
CAKI-1 renal = test system: CAKI-1 renal
SF-539 CNS = test system: SF-539 CNS
HT29 colon = test system: HT29 colon
SK-MEL-5 melanoma = test system: SK-MEL-5 melanoma
K-562 leukemia = test system: K-562 leukemia
NCI-H460 lung = test system: NCI-H460 lung
NCI-H226 lung = test system: NCI-H226 lung
SN12C renal = test system: SN12C renal
SF-295 CNS = test system: SF-295 CNS
SR leukemia = test system: SR leukemia
MDA-MB-435 = test system: MDA-MB-435
ACHN renal = test system: ACHN renal
PC-3 prostate = test system: PC-3 prostate
MALME-3M melanoma = test system: MALME-3M melanoma
CCRF-CEM leukemia = test system: CCRF-CEM leukemia
MDA-MB-231 breast = test system: MDA-MB-231 breast
MOLT-4 leukemia = test system: MOLT-4 leukemia
RXF 393 renal = test system: RXF 393 renal
BT-549 breast = test system: BT-549 breast

Fc1c(F)c(F)c2c(c1F)CSc1nc3ccccc3n1-2
> 100 µM: TGI (OVCAR-3 ovarian) | TGI (SF-268 CNS) | TGI (LOX IMVI melanoma) | TGI (HCC-2998 colon) | TGI (DU-145 prostate) | TGI (T-47D breast) | TGI (A498 renal) | TGI (SK-OV-3 ovarian) | TGI (HCT-116 colon) | TGI (SNB-19 CNS) | TGI (SW-620 colon) | TGI (IGROV1 ovarian) | TGI (NCI-H23 lung) | TGI (HL-60(TB) leukemia) | TGI (MCF7 breast) | TGI (EKVX NSCLC) | TGI (M14 melanoma) | TGI (SK-MEL-28 melanoma) | TGI (786-0 renal) | TGI (HCT-15 colon) | TGI (OVCAR-8 ovarian) | TGI (OVCAR-4 ovarian) | TGI (SNB-75 CNS) | TGI (COLO 205 colon) | TGI (RPMI-8226 leukemia) | TGI (NCI-H522 lung) | TGI (OVCAR-5 ovarian) | TGI (KM12 colon) | TGI (U251 CNS) | TGI (HOP-92 NSCLC) | TGI (TK-10 renal) | TGI (NCI/ADR-RES ovarian) | TGI (SK-MEL-2 melanoma) | TGI (UACC-257 melanoma) | TGI (UACC-62 melanoma) | TGI (HS 578T breast) | TGI (HOP-62 NSCLC) | TGI (A549 NSCLC) | TGI (CAKI-1 renal) | TGI (SF-539 CNS) | TGI (HT29 colon) | TGI (SK-MEL-5 melanoma) | TGI (K-562 leukemia) | TGI (NCI-H460 lung) | TGI (NCI-H226 lung) | TGI (SN12C renal) | TGI (SF-295 CNS) | TGI (SR leukemia) | TGI (MDA-MB-435) | TGI (ACHN renal) | TGI (PC-3 prostate) | TGI (MALME-3M melanoma) | TGI (CCRF-CEM leukemia) | TGI (MDA-MB-231 breast) | TGI (MOLT-4 leukemia) | TGI (RXF 393 renal)

COc1ccc(-c2nnc(COc3ccc(Cl)cc3Cl)o2)cc1OC
7.22 µM: TGI (A498 renal)
17.6 µM: TGI (U251 CNS)
37.5 µM: TGI (SK-MEL-2 melanoma)
> 100 µM: TGI (LOX IMVI melanoma) | TGI (HCC-2998 colon) | TGI (SNB-19 CNS) | TGI (IGROV1 ovarian) | TGI (NCI-H23 lung) | TGI (HL-60(TB) leukemia) | TGI (MCF7 breast) | TGI (EKVX NSCLC) | TGI (HCT-15 colon) | TGI (OVCAR-8 ovarian) | TGI (OVCAR-5 ovarian) | TGI (KM12 colon) | TGI (NCI/ADR-RES ovarian) | TGI (UACC-62 melanoma) | TGI (SK-MEL-5 melanoma) | TGI (K-562 leukemia) | TGI (PC-3 prostate) | TGI (MOLT-4 leukemia)
3.32 µM: TGI (786-0 renal)
3.36 µM: TGI (SNB-75 CNS)
70.6 µM: TGI (SF-295 CNS)
41.1 µM: TGI (SF-539 CNS)
96.7 µM: TGI (SF-268 CNS)
4.91 µM: TGI (HOP-92 NSCLC)
30.3 µM: TGI (NCI-H226 lung)
7.9 µM: TGI (HOP-62 NSCLC)
96.2 µM: TGI (HS 578T breast)
18.3 µM: TGI (NCI-H522 lung)
76.5 µM: TGI (BT-549 breast)
inactive: GI50 (SF-268 CNS) 5.95 µM | GI50 (LOX IMVI melanoma) 3.16 µM | GI50 (HCC-2998 colon) > 100 µM | GI50 (A498 renal) 2.78 µM | GI50 (SNB-19 CNS) 6.69 µM | GI50 (IGROV1 ovarian) 4.22 µM | GI50 (NCI-H23 lung) 6.18 µM | GI50 (HL-60(TB) leukemia) > 100 µM | GI50 (MCF7 breast) 5.45 µM | GI50 (EKVX NSCLC) 4.39 µM | GI50 (786-0 renal) 1.8 µM | GI50 (HCT-15 colon) > 100 µM | GI50 (OVCAR-8 ovarian) 4.02 µM | GI50 (SNB-75 CNS) 1.61 µM | GI50 (NCI-H522 lung) 3.28 µM | GI50 (OVCAR-5 ovarian) 3.53 µM | GI50 (KM12 colon) > 100 µM | GI50 (U251 CNS) 4.36 µM | GI50 (HOP-92 NSCLC) 2.16 µM | GI50 (TK-10 renal) 3.15 µM | GI50 (NCI/ADR-RES ovarian) 3.44 µM | GI50 (SK-MEL-2 melanoma) 7.79 µM | GI50 (BT-549 breast) 16.9 µM | GI50 (UACC-62 melanoma) 3.35 µM | GI50 (HS 578T breast) 3.73 µM | GI50 (HOP-62 NSCLC) 2.37 µM | GI50 (SF-539 CNS) 5.52 µM | GI50 (SK-MEL-5 melanoma) 3.27 µM | GI50 (K-562 leukemia) > 100 µM | GI50 (NCI-H226 lung) 3.42 µM | GI50 (SF-295 CNS) 13.5 µM | GI50 (PC-3 prostate) 6.4 µM | GI50 (MOLT-4 leukemia) 8.3 µM | GI50 (RXF 393 renal) 2.14 µM
6.61 µM: TGI (TK-10 renal)
4.59 µM: TGI (RXF 393 renal)
